Source: patent US20230218555A1, “CREATINE, ITS DERIVATIVES, COMPOSITIONS AND METHODS OF USE THEREOF” (priority 2021, published 2023)

Assays:
Format in all cases: in vivo, human
psoriatic arthritis = assay: Example 25: psoriatic arthritis, topical C15
Text: A subject with a 42 year history of psoriasis, and psoriatic arthritis for the past 8 years, was provided a topical solution of C15 4% in WP 82. […] The subject has used topical formulations of C15 for over 12 weeks, comparing efficacy of 2%, 3.5% and 5% concentrations of C15.

bunion on right foot = assay: Example 21: subcutaneous injection over bunion; conditions: weekly subcutaneous injections of 1.5% aqueous solution
Text: A subject presented with bunion on right foot that has been enlarging over the past decade. […] Weekly injections will be continued for another month or two to determine whether complete resolution will be achieved.

[1] = system: osteoarthritis of multiple joints; assay: Example 18: whole body application
Method: A subject with continually worsening very painful osteoarthritis of multiple joints for 15-16 years prepared the following formulation: […]
N-Acetyl Ethyl Creatinate (C15): Water: Propylene glycol: Mineral Oil: Sodium lauryl sulfate […].
After taking a morning shower, the entire 40 ml formulation was applied by themself and their assistants to their entire body, except the scalp. […] The subject was without any sense of pain for 4.5 hours when mild painful discomfort in the neck was sensed. Over the next 3 hours pain in all joints returned to usual substantial levels.

poison ivy dermatitis = assay: Example 36: poison ivy dermatitis itch
Method: A subject developed poison ivy dermatitis of their forearms about 18 hours after pruning bushes. Itch was intense at 24 hours when they applied C15 10% in a lotion made up of hydrophilic ointment USP 35% diluted with 65% water. […] Duration of itch relief next was for about 10 hours and the next for 12-15 hours. Relief was longer and longer from subsequent applications. Signs and symptoms of dermatitis were gone at 4 days.

erythematous pharyngitis = assay: Example 31: sore throat, spray mist
Method: A subject, upon arising from bed in the morning, was acutely aware of a severe sore throat. […] They were provided, in a 2 oz spray container, a 3% aqueous solution of C15 that they sprayed into their moth toward the inflamed pharynx. […] Repeated spraying during the day were followed by longer pain free intervals. They reported that at 7 PM the last pain free interval had been 1 hour. Next morning the pharyngitis had improved, and the subject used spray mist less frequently.

[2] = system: acute pain in the left side of their neck; assay: Example 11: acute neck pain; conditions: 1.5% in water: propylene glycol 8:2, topical to neck
Text: A subject who had shoveled heavy snow all day, throwing the snow mostly to left, upon arising from bed the next morning experienced acute pain in the left side of their neck that intensified as they attempted to move their head in any direction.

[3] = system: post trauma pain in the pinned ankle; assay: Example 34: ankle pain after surgical insertion of metal screws; conditions: prior applications of C15 formulations
Method: A subject with above described post trauma pain at the end of each day experienced painful discomfort in the pinned ankle. […] Complete relief lasted nearly 24 hours. At the end of the next day, the ankle was as painful as the days before. Subject applied 6% C20 in same liquid vehicle.

painful left knee = assay: Example 10: acute knee pain after physical trauma
Text: A subject with painful left knee gave a history of physical trauma to the left knee while cleaning their house. Degree of pain was sufficiently intense that it required them to wear a knee brace throughout the day, daily. […] The subject was provided a formulation of N-acetyl ethyl creatinate 1.5% dissolved in water: propylene glycol 8:2 for topical application.

post trauma pain = assay: Example 33: post trauma pain of hand
Text: A subject was provided a 9% solution of C15 in WEP 532 for possible use against itch or pain. Several weeks later they sent by e-mail the following message:
“Yesterday I slammed the top of my hand accidentally against a door. That really hurt and I could barely move my hand. Started to ice it and then realized that I had decided to keep one bottle of the pain medicine here at the shore. […] Like a miracle. Iced it after as I could tell a welt was forming. Again at bedtime I put a little of the pain med on it in case the earlier application wore off and iced again as it was a bit swollen. Looked red and maybe a little swollen this morning but no pain!”

sprained left ankle = assay: Example 27: ankle sprain pain; conditions: 4% in WP 82, 2-3 times daily for 4-5 days
Text: A subject sprained their left ankle while hiking.

[4] = system: muscular pain of upper right back, dystonia; assay: Example 23: pain of dystonia, local subcutaneous injections
Method: Five sites of the upper back were injected with 0.3 ml C15 in aqueous solution using insulin syringes with 30G short needles. […] At that time the injections were repeated just before […] departed on a trip to Europe.

[5] = system: Aphthous Ulcers (Canker Sores); assay: Example 20: aphthous ulcers (canker sores), topical
Text: Two eroded painful sites 2-3 mm in diameter on the right side of the tongue worsened over 2 days in a subject. At bedtime of the 2nd day, the subject topically applied C15 3% in water: propylene glycol 8:2.

[6] = system: rheumatoid arthritis; rheumatoid nodule; assay: Example 13: rheumatoid arthritis fingers, nodule injection and glove application; conditions: left hand only
Method: A subject noted changes in their fingers that appeared to be compatible with the diagnosis of early rheumatoid arthritis in autumn of the year. At about one month later there appeared over the terminal interphalangeal joint of the left third finger a raised inflammatory nodule compatible with the diagnosis of a rheumatoid nodule. The nodule was injected with 0.15 ml of a 2% aqueous solution/suspension of creatine monohydrate once weekly for four injections. […] Thereafter, for a period of one month, the subject wore a nitrile glove containing a few drops N-acetyl ethyl creatine 3% dissolved in water: propylene glycol 8:2 for about an hour twice daily on the left hand only.

## CCOC(=O)CN(C)C(N)=NC(C)=O [Compound C15, N-acetyl ethyl creatinate]
Psoriatic arthritis; 4% in WP 82
  duration of relief: 6 to 24 h
Psoriatic arthritis; 4% in WP 82, topical to wrists, hands, fingers and ankles, person
  relief of pain: almost instantaneous, complete relief of pain
Psoriatic arthritis; 5% administered as a spray mist
  comparison of 2%, 3.5% and 5% concentrations: most effective of the three
Psoriatic arthritis; 5% spray mist
  duration of complete pain relief: 24 h
Bunion on right foot
  change of bunion: distinct resolution in mass
[1]; 40 ml formulation applied to entire body except scalp, person
  extent of pain relief: all pain ceased in all previously painful joints
[1]; whole body application
  duration without any sense of pain: 4.5 h
  time to pain relief: about 5 minutes
Poison ivy dermatitis; 10% in lotion (hydrophilic ointment USP 35%, water 65%), forearms
  relief of itch: Relief of itch was immediate
Poison ivy dermatitis; first application
  duration of itch relief: about 6 hours
Poison ivy dermatitis; repeated applications
  time until signs and symptoms of dermatitis were gone: 4 days
Poison ivy dermatitis; second application
  duration of itch relief: about 10 hours
Poison ivy dermatitis; third application
  duration of itch relief: 12 to 15 h
Erythematous pharyngitis; 3% aqueous solution sprayed toward pharynx
  relief of pain: immediate complete relief of pain
Erythematous pharyngitis; 3% aqueous spray
  duration of relief, first spraying: 25 min
Erythematous pharyngitis; repeated spraying during the day
  last pain free interval at 7 PM: 1 h
[2]
  time to pain relief: ≤ 2 min
[2]; person
  extent of pain relief: neck pain subsided completely and did not return
[3]
  extent of pain relief: substantially relieve the pain but not completely
Painful left knee; 1.5% in water: propylene glycol 8:2, topical
  time to pain relief after application: about 2 minutes
Painful left knee; 1.5% in water: propylene glycol 8:2, topical, person
  extent of pain relief: pain in the knee completely vanished
Painful left knee; at report 10 days later
  recurrence of pain: Pain had not recurred
Post trauma pain; 9% in WEP 532, topical to hand
  relief of pain: in a minute or two the pain went away
Post trauma pain; second application at bedtime
  pain next morning: no pain
Sprained left ankle
  ankle pain at end of treatment: no ankle pain was detected
[4]; first injections
  duration of relief: 2 weeks
[4]; five sites of upper back injected with 0.3 ml aqueous solution
  extent of pain relief: Complete relief of pain
[4]; five sites, 0.3 ml
  time to pain relief: within the next hour
[4]; repeated injections
  duration of relief after repeated injections: lasting beyond two week period
[5]; 3% in water: propylene glycol 8:2, topical to tongue
  extent of pain relief: Complete pain relief
[5]; 3% topical
  clinical sign of lesions next day: No clinical sign of the lesions could be detected next day
  return of pain: remained pain free throughout the night and did not return
  time to pain relief: within less than a minute
[6]; 3% in glove
  pain on making a fist: the left fist was pain free whereas the right fist was substantially painful
  size of tight fist: the size of the left fist was visibly smaller than that of the right
[6]; 3% in glove, right hand restricted
  flexibility of hand and fingers: The left hand and fingers were completely flexible
[6]; 3% in water: propylene glycol 8:2 in nitrile glove, about an hour twice daily, one month, after another two months
  feel of treated left hand vs untreated right hand: feel much better than the right hand
